Ends that are not written are not given here.
What was measured:
thalamocortical OTCs = assay: thalamocortical OTC neuronal migration assay (cell bridge / cell chain); assay type: cell-based, rat
Description: We developed a new assay system for identifying NRP having migration-inducing activity. The assay system was used following guidelines approved by the Gesundheitsamt Magdeburg animal ethics committee. Newborn Long Evans rats (P0) were killed by decapitation, and neural tissues were used for preparation of organotypic cultures (OTCs). Neocortical tissue (areas 17-18 according to the Paxinos rat atlas of the developing rat brain) and thalamic tissue from the dorsal thalamus (visual areas) were extracted. These areas represent the visual axis. The dorsal thalamus was accessed by an intersection cut to remove the hypothalamus. Subsequently, the thalamus was sliced frontally using a McIllwain tissue chopper into 350 μm thick slices. Using a dissecting microscope, the habenula nucleus served as a landmark to select only dorsal thalamic areas. Cortical tissues were cut using two sagittal and two frontal intersections in order to obtain areas 17-18 of the occipital cortex. Before the last frontal cut was made, the hippocampal formation was removed. The cortical tissues were sliced by a Mclllwain tissue chopper into 350 μm thick frontal slices and was incubated in Gey's balanced salt solution (GBSS) plus 0.65% D(+)glucose, and tissuesswere kept at 4° C. for at least 30-40 minutes for recovery.
For each assay, two slices of tissue, one cortical and one thalamic, were arranged at a distance at least about 3 mm from each other on a glass substrate (e.g., a cover slip; FIG. 1). The thalamus was oriented with the habenula nucleus facing cortical layer VI. The tissues were adhered to the substrate using a plasma clot (10 μl chicken plasma (Cocalico) coagulated with 10 μl thrombin (25 U/ml, ICN) and the tissues were subsequently cultured (cultivated) at 36° C. in a roller tube incubator as organotypic cultures using 2/4 BME/¼ HBSS (Invitrogen) medium supplemented with 25% heat-inactivated horse serum (Gaehwiler, 1981) plus 2 mM L0glutamine and 0.65% D-glucose. A 712.5 μl sample of prepared medium was supplemented with 37.5 μl of purified rat NRP-1 (SEQ ID NO:2) (in concentrated or diluted form) in 0.01 M sodium phosphate (pH 7.3) or phosphate alone (control). For the experiments using 600 ng/ml NRP-1, the peptide was concentrated 4 times by speed vacuum centrifugation. The medium containing NRP was changed every three days. After each study was completed, the tissues were fixed using conventional fixatives, and migrating neurons were analysed by immunocytochemistry.
Thus, any observations of neurite outgrowths or interconnecting cell bridges are due to the influence of factors added to the culture medium. […] Thus, in certain embodiments of this invention, NRPs can be identified and/or quantified. In other embodiments, NRPs amounts can be standardized, forming a basis for therapeutic application of NRPs to treat neurological diseases or conditions.
Migration of the thalamic neurons was determined after 3 days of co-culture in the presence of NRP. The migration distances were measured by a micrometer scaled-microscopic ocular, beginning from the tissue margin of the migrating cell stream. As a threshold value for the formation of a migrating cell chain was considered to be a number of at least 5 interconnected neurons. For the determination of the dose-response curve, the longest distance of a migrated neuron from the thalamic tissue margin was measured. Results are given as mean values+/− standard deviation.

GFAP-positive astrocytes = assay: astrocyte proliferation (GFAP/BrdU) in thalamocortical OTC cell bridge; assay type: cell-based, rat
Method: FIG. 12 depicts the specificity of the proliferation induced by NRP-1 (SEQ ID NO: 2). We tested the proliferation status of astroglia by monitoring the expression patterns for GFAP and BrdU-incorporation. Thalamocortical OTCs were supplemented with 3 nM highly purified migration-inducing factor and fixed following 4 days in vitro. FIG. 12A (left panel) depicts non-proliferative GFAP-positive astrocytes (white arrows) accompanying the neuronal migration stream, with a subpopulation of astrocytes of proliferative character (FIG. 12B, right panel; white arrow heads). Approximately 30% of the astrocytes in close vicinity to the neuronal migration stream were of proliferative character. Bar: 50 μm.
We also investigated the effects of NRP-1 (SEQ ID NO:2) on the induction of proliferation within astrocytes in a qualitative way. […] Therefore we looked only at the newly formed cell bridge between the thalamic and cortical tissue 4 days after NRP administration.

mouse neural stem cells = assay: haptotactic migration assay, mouse neural stem cells; assay type: cell-based
Method: (§1) NRPs were tested for migration-inducing/chemoattractive activity on mouse neural stem cells, EGF-dependent immortalized mouse neural stem cell line MEB5 and wild-type PC-12 cells in a haptotactic migration assay as described below.
(§2) Initial NRP Coating. Control wells of Transwell plates (Coming) with 12 μm pore size were coated in 1.5 ml of the BSA/PBS vehicle. Remaining plates were coated using various concentrations of NRPs ranging between 1-100 ng/ml (prepared in PBS containing 10 ug/ml BSA). The plates were then incubated at 37° C. for 1 hr to coat. Wells were then rinsed 2× with 1 ml sterile PBS.
(§3) Laminin ([…]) for MEB-5 cells, PDL (50 μg/ml)+Matrigel for mouse primary stem cells and fibronectin (25 ug/ml)+matrigel for PC-12 cells were used as extracellular matrix (ECM) coating for the cells. All ECM compounds were diluted in PBS. 1.5 ml of the ECM per well was incubated for 2 hrs at room temperature. The wells were then rinsed once with Iml serum-free media (e.g. NB/B27) followed by 1 ml PBS wash.
A 5 ug/mL PDL/PLL mixture (in PBS) was used to coat inserts. Subsequently the inserts were rinsed with MilliQ water.
Transferring to Media and Cell Seeding: Appropriate medium (MEB-5 cells: DMEM-high glucose+N2 (growth medium supplement from Invitrogen)+10 ng/biotin+2 mM L-glutamine, primary stem cells: NSA-medium from Euroclone and for PC-12 cells: NB/B27 medium) was transferred into the 12-well plates. […] Plates were fixed at 1-2 days in vitro (DIV).
Fixation: Inserts were discarded and wells fixed in successive dilutions of PFA (0.4, 1.2, 3 and 4%) for 3-5min in each dilution. […] The wells were rinsed and stored in PBS until counting.
A haptotactic migration assay was performed according to the description of Example 10 using rat NRP-9SD (SEQ ID NO:34) (4 nM) and mouse NRP-7SW (SEQ ID NO:24) (0.4 nM) as attractants in a Boyden chamber

MEB-5 cells = assay: haptotactic migration assay, MEB-5 cells; assay type: cell-based, mouse; settings: 1 ng/ml coating, 200,000 cells
Method: as §1, §2, §3
A 5 ug/mL PDL/PLL mixture (in PBS) was used to coat inserts. Subsequently the inserts were rinsed with MilliQ water. […]

NRP-1: rat 16 amino acid neural regeneration peptide purified from hippocampal OTC supernatant, Tyr Asp Pro Glu ... Cys His-NH2 (YDPEAASAPGSGNPCH-NH2)
concentration at which neuronal migration was clearly detected (thalamocortical OTCs; 2 ng/ml = 1 nM): 2 ng/mL | length of cell bridge between the thalamic and cortical tissues (thalamocortical OTCs; 6 ng/ml (3 nM)): 2500±240 μm | concentrations at which neuronal migration was not increased (thalamocortical OTCs; 10-30 nM): 20 to 60 ng/mL | interconnecting neurite network formed, time after cultivation start (thalamocortical OTCs; NRP-1 supplemented co-cultures): ≤ 36 h | concentration producing the longest cell chain (thalamocortical OTCs; dose-response 2-600 ng/ml, 6 ng/ml = 3 nM): 6 ng/mL | concentration producing the greatest effect (migrating cell chain) (thalamocortical OTCs; thalamocortical OTCs): 3 nM | astroglial division (GFAP-positive astrocytes): does not induce astroglial division | astrocytes in close vicinity to the neuronal migration stream of proliferative character (GFAP-positive astrocytes; 3 nM, 4 days in vitro): Approximately 30%

SEPEARRAPGRKGGVVCASLAADW-NH2 [NRP-7 segment SW, 24-mer form of mouse NRP-7]
more NSCs attracted to the culture dish bottom (mouse neural stem cells; 0.4 nM): 2 fold | more E-14 cell density compared with BSA-vehicle (mouse neural stem cells; 10 ng/ml coating, 400,000 cells): 35% | potency relative to SDF-1 (mouse neural stem cells; SDF-1 100 nM vs NRP-7SW 0.2 nM): about 500 times

KDPEARRAPGSLHPCLAAS-NH2 [NRP-2 segment KS, 19-mer fragment of NRP-2]
more MEB-5 cells migrated compared with BSA-vehicle (MEB-5 cells): 109%
